This note sets out measurements from PMC6515286 (Molecules, 2019).

Structures can show the parent of a compound that is named as a salt.

By Ki is commonly meant a dissociation constant, usually derived from enzyme kinetics or from competition with a known ligand.

For one assay, the target named is D2 receptor (Homo sapiens, UniProt P14416). The experiment in a line: in vitro binding to D2 receptor (screening protocol). The following applies: read-out: Ki ± SD D2. How it is done: (§1) The ligands obtained in the synthesis (10a–r) were tested in vitro for binding to D2, 5-HT1A, 5-HT2A, 5-HT6, and 5-HT7 receptors on the basis of the screening protocol described previously (Table 6).

A further assay deals with 5-HT2A receptor (Homo sapiens, UniProt P28223). The experiment in a line: in vitro binding to 5-HT2A receptor (screening protocol). The following applies: read-out: Ki ± SD 5-HT2A. The procedure: as §1
For the next assay, the target named is 5-HT6 receptor (Homo sapiens, UniProt P50406). Put plainly: in vitro binding to 5-HT6 receptor (screening protocol). To be noted: read-out: Ki ± SD 5-HT6. The procedure:
as §1

Another assay addresses 5-HT7 receptor (Homo sapiens, UniProt P34969). The experiment in a line: in vitro binding to 5-HT7 receptor (screening protocol). The following applies: read-out: Ki ± SD 5-HT7. The procedure: as §1
The target of another assay is T1, 5-HT1A receptor (Homo sapiens, UniProt P08908).
T1 sequence (P08908 1-422): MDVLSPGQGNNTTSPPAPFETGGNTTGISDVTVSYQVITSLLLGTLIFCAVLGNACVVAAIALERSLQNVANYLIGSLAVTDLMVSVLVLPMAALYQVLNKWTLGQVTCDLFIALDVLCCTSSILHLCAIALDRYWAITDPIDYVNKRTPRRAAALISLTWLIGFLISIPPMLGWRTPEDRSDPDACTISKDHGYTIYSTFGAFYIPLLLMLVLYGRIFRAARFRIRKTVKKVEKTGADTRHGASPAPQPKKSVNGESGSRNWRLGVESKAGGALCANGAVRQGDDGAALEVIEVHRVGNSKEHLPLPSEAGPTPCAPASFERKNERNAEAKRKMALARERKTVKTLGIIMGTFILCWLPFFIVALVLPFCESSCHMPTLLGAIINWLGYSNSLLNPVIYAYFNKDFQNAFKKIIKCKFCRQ
The experiment in a line: in vitro binding to 5-HT1A receptor (screening protocol). The following applies: read-out: Ki ± SD 5-HT1A. How it is done: as §1

Chain of 5-HT6 receptor (P50406 whole entry): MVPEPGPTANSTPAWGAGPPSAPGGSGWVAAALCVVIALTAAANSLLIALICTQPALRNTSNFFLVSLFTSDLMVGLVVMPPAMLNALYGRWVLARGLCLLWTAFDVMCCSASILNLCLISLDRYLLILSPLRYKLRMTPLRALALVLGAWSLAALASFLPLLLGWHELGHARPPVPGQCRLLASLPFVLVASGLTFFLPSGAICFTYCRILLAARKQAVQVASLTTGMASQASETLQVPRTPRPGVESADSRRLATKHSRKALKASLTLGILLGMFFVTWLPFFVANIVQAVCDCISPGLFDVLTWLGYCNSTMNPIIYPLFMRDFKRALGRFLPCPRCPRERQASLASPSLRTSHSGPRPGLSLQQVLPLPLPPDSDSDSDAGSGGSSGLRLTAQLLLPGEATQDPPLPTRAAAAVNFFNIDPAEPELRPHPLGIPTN
Chain of 5-HT7 receptor (P34969 whole entry): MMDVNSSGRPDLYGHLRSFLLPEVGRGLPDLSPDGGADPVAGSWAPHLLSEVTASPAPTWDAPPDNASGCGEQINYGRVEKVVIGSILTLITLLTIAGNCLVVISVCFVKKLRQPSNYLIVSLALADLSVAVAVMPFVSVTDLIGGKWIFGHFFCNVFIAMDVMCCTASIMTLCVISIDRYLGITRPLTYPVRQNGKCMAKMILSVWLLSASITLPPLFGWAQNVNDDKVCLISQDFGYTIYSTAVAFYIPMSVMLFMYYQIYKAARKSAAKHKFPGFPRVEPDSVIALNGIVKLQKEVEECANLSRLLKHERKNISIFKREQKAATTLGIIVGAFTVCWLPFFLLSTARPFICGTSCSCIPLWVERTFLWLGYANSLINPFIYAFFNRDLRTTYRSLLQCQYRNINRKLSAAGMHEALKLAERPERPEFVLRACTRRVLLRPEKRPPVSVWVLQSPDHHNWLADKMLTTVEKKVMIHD
Chain of 5-HT2A receptor (P28223 whole entry): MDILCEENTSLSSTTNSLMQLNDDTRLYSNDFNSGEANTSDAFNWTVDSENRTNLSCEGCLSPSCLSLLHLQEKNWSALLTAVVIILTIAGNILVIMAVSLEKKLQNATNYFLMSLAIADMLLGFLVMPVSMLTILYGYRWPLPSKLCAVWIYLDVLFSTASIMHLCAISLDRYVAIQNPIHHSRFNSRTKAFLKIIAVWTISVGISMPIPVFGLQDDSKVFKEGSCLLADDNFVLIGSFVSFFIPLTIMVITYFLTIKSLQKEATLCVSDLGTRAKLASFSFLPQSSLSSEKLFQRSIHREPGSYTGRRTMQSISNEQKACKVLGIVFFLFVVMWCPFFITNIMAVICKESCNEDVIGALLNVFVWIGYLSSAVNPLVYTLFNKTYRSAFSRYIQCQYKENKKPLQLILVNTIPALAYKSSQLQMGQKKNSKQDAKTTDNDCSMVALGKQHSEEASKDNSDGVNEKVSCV
Chain of D2 receptor (P14416 whole entry): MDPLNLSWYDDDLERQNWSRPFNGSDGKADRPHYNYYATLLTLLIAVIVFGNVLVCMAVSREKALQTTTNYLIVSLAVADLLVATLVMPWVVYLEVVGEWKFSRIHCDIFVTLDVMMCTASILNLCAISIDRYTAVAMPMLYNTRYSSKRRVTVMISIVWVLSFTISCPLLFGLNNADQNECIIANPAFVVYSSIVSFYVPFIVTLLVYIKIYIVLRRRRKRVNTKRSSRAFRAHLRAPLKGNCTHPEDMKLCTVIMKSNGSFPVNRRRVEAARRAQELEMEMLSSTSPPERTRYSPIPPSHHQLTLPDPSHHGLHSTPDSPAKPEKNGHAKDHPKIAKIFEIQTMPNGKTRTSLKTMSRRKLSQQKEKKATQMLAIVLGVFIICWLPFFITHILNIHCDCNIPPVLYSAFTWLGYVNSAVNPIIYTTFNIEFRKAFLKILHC

On to `O=c1n(CCCN2CCN(c3cccc(Cl)c3Cl)CC2)nc2ccccn12` [10a, 2-[3-[4-(2,3-dichlorophenyl)piperazin-1-yl]propyl]-[1,2,4]triazolo[4,3-a]pyridin-3-one hydrochloride], for which the inhibition constant (Ki) was 116 ± 19 nM at D2 receptor, 181 ± 22 nM on 5-HT2A receptor, 1430 ± 294 nM at 5-HT6 receptor and 157 ± 13 nM on 5-HT7 receptor.
On to `O=c1n(CCCN2CCN(c3ccccc3F)CC2)nc2ccccn12` [10b, 2-[3-[4-(2-fluorophenyl)piperazin-1-yl]propyl]-[1,2,4]triazolo[4,3-a]pyridin-3-one hydrochloride], for which the Ki on D2 receptor was determined as 1650 ± 203 nM; at 5-HT1A receptor it was 1550 ± 314 nM; at 5-HT2A receptor, 969 ± 114 nM; at 5-HT6 receptor, 36400 nM; at 5-HT7 receptor, 7420 ± 625 nM.
In the case of `O=c1n(CCCN2CCN(c3ncccn3)CC2)nc2ccccn12` [10c, 2-[3-(4-pyrimidin-2-ylpiperazin-1-yl)propyl]-[1,2,4]triazolo[4,3-a]pyridin-3-one hydrochloride], the Ki was 122 ± 8 nM on D2 receptor; 459 ± 36 nM on 5-HT1A receptor; 178 ± 25 nM at 5-HT2A receptor; 3250 ± 401 nM on 5-HT6 receptor; 174 ± 34 nM on 5-HT7 receptor.
For the compound `CCOc1ccccc1N1CCN(CCCn2nc3ccccn3c2=O)CC1` [10d, 2-[3-[4-(2-ethoxyphenyl)piperazin-1-yl]propyl]-[1,2,4]triazolo[4,3-a]pyridin-3-one hydrochloride], the Ki came to 152 ± 17 nM at D2 receptor; 593 ± 81 nM at 5-HT1A receptor; 6710 ± 952 nM at 5-HT2A receptor; 9460 ± 1140 nM at 5-HT6 receptor; 539 ± 68 nM at 5-HT7 receptor.
Regarding `O=c1n(CCCCCCN2CCN(c3cccc(Cl)c3)CC2)nc2ccccn12` [10e, 2-[6-[4-(3-chlorophenyl)piperazin-1-yl]hexyl]-[1,2,4]triazolo[4,3-a]pyridin-3-one hydrochloride], the Ki at D2 receptor came to 137 ± 11 nM; at 5-HT1A receptor, 16 ± 2 nM; on 5-HT2A receptor, 342 ± 48 nM; at 5-HT6 receptor, 1940 ± 281 nM; on 5-HT7 receptor, 278 ± 19 nM.
For `O=c1n(CCCCCCN2CCN(c3ccccc3Cl)CC2)nc2ccccn12` [10f, 2-[6-[4-(2-chlorophenyl)piperazin-1-yl]hexyl]-[1,2,4]triazolo[4,3-a]pyridin-3-one hydrochloride], the Ki came to 522 ± 71 nM at D2 receptor; 49 ± 4 nM on 5-HT1A receptor; 2600 ± 318 nM at 5-HT2A receptor; 3570 ± 563 nM on 5-HT6 receptor; 2600 ± 359 nM on 5-HT7 receptor.
Take `O=c1n(CCCCCCN2CCN(c3ccc(Cl)cc3)CC2)nc2ccccn12` [10g, 2-[6-[4-(4-chlorophenyl)piperazin-1-yl]hexyl]-[1,2,4]triazolo[4,3-a]pyridin-3-one hydrochloride]: the Ki at D2 receptor worked out at 362 ± 17 nM; at 5-HT1A receptor, 27 ± 3 nM; at 5-HT2A receptor, 234 ± 46 nM; on 5-HT6 receptor it was 2060 ± 173 nM; on 5-HT7 receptor, 435 ± 61 nM.
For the compound `O=c1n(CCCCCCN2CCN(c3ccc(Cl)c(Cl)c3)CC2)nc2ccccn12` [10h, 2-[6-[4-(3,4-dichlorophenyl)piperazin-1-yl]hexyl]-[1,2,4]triazolo[4,3-a]pyridin-3-one hydrochloride], the inhibition constant Ki at D2 receptor is 310 ± 42 nM; at 5-HT1A receptor, 19 ± 3 nM; at 5-HT2A receptor it was 77 ± 14 nM; on 5-HT6 receptor, 576 ± 82 nM; at 5-HT7 receptor, 196 ± 29 nM.
For the compound `O=c1n(CCCCCCN2CCN(c3ccccc3F)CC2)nc2ccccn12` [10i, 2-[6-[4-(2-fluorophenyl)piperazin-1-yl]hexyl]-[1,2,4]triazolo[4,3-a]pyridin-3-one hydrochloride], the Ki on D2 receptor stood at 195 ± 11 nM; on 5-HT1A receptor, 7 ± 2 nM; at 5-HT2A receptor, 417 ± 52 nM; on 5-HT6 receptor, 4740 ± 687 nM; on 5-HT7 receptor it was 993 ± 214 nM.
With `COc1ccccc1N1CCN(CCCCCCn2nc3ccccn3c2=O)CC1` [10j, 2-[6-[4-(2-methoxyphenyl)piperazin-1-yl]hexyl]-[1,2,4]triazolo[4,3-a]pyridin-3-one hydrochloride], the inhibitory constant (Ki) on D2 receptor came to 57 ± 6 nM; on 5-HT1A receptor it was 4 ± 1 nM; at 5-HT2A receptor, 841 ± 105 nM; at 5-HT6 receptor, 11500 nM; at 5-HT7 receptor, 219 ± 36 nM.
Take `COc1cccc(N2CCN(CCCCCCn3nc4ccccn4c3=O)CC2)c1` [10k, 2-[6-[4-(3-methoxyphenyl)piperazin-1-yl]hexyl]-[1,2,4]triazolo[4,3-a]pyridin-3-one hydrochloride]: the Ki at D2 receptor was 21 ± 3 nM; on 5-HT1A receptor, 9 ± 2 nM; on 5-HT2A receptor it was 343 ± 21 nM; at 5-HT6 receptor it was 3500 ± 537 nM; at 5-HT7 receptor, 1020 ± 184 nM.
As to `COc1ccc(N2CCN(CCCCCCn3nc4ccccn4c3=O)CC2)cc1` [10l, 2-[6-[4-(4-methoxyphenyl)piperazin-1-yl]hexyl]-[1,2,4]triazolo[4,3-a]pyridin-3-one hydrochloride], the Ki at D2 receptor amounted to 350 ± 54 nM; at 5-HT1A receptor, 826 ± 91 nM; on 5-HT2A receptor, 3900 ± 432 nM; on 5-HT6 receptor, 5620 ± 743 nM; at 5-HT7 receptor, 8300 ± 1350 nM.
As to `CCOc1ccccc1N1CCN(CCCCCCn2nc3ccccn3c2=O)CC1` [10m, 2-[6-[4-(2-ethoxyphenyl)piperazin-1-yl]hexyl]-[1,2,4]triazolo[4,3-a]pyridin-3-one hydrochloride], the inhibitory constant (Ki) at D2 receptor stood at 1640 ± 219 nM; at 5-HT1A receptor, 9 ± 2 nM; on 5-HT2A receptor, 1540 ± 225 nM; at 5-HT6 receptor, 4820 ± 581 nM; at 5-HT7 receptor, 251 ± 52 nM.
Consider `O=c1n(CCCCCCN2CCN(c3ccccn3)CC2)nc2ccccn12` [10n, 2-[6-[4-(2-pyridyl)piperazin-1-yl]hexyl]-[1,2,4]triazolo[4,3-a]pyridin-3-one hydrochloride], for which the Ki stood at 10 ± 2 nM at D2 receptor; 18 ± 3 nM on 5-HT1A receptor; 1720 ± 193 nM on 5-HT2A receptor; 4640 ± 341 nM at 5-HT6 receptor; 1050 ± 91 nM at 5-HT7 receptor.
In the case of `O=c1n(CCCCCCN2CCN(c3ncccn3)CC2)nc2ccccn12` [10o, 2-[6-(4-pyrimidin-2-ylpiperazin-1-yl)hexyl]-[1,2,4]triazolo[4,3-a]pyridin-3-one hydrochloride], the Ki on D2 receptor is 202 ± 31 nM; on 5-HT1A receptor, 104 ± 12 nM; on 5-HT2A receptor, 10600 nM; on 5-HT6 receptor, 7220 ± 827 nM; on 5-HT7 receptor it was 5570 ± 438 nM.
For the compound `O=c1n(CCCCCCN2CCN(c3ccccc3)CC2)nc2ccccn12` [10p, 2-[6-(4-phenylpiperazin-1-yl)hexyl]-[1,2,4]triazolo[4,3-a]pyridin-3-one hydrochloride], the Ki at D2 receptor amounted to 1530 ± 116 nM; on 5-HT1A receptor, 28 ± 4 nM; on 5-HT2A receptor, 391 ± 27 nM; on 5-HT6 receptor, 3330 ± 197 nM; on 5-HT7 receptor, 404 ± 67 nM.
Take `O=c1n(CCCCCCN2CCN(c3ccccc3-c3ccccc3)CC2)nc2ccccn12` [10r, 2-[6-[4-(2-phenylphenyl)piperazin-1-yl]hexyl]-[1,2,4]triazolo[4,3-a]pyridin-3-one hydrochloride]: the inhibitory constant (Ki) on D2 receptor was 191 ± 14 nM; on 5-HT1A receptor it was 20 ± 3 nM; on 5-HT2A receptor, 328 ± 49 nM; on 5-HT6 receptor, 1190 ± 165 nM; on 5-HT7 receptor, 19 ± 3 nM.
